Among the data in US12065445B2, “CDK2 inhibitors and methods of using the same” (Cedilla Therapeutics, Inc., priority 2021, dated 2024) are IC50 values, retold here.

This test concerns Kuramochi cells. Description: BrdU Cell Proliferation Assay. It counts as cell-based. Particulars: read-out: BrdU - KURAMOCHI.1: IC50. The method, boiled down: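 Signal is 450 nm absorbance from a peroxidase anti-BrdU ELISA after a 1-hour BrdU label, background-subtracted and normalized to DMSO-treated wells. Kuramochi cells (2,000 per well) had been exposed to compound for 4 days. Dosing used a 10-point dose response in 3-fold steps.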

`CNC(=O)[C@@H](NC(=O)[C@@H]1CN(C(=O)c2cnn(CC3CC3)c2)CC12CN(C(=O)CC1CC1)C2)[C@@H](C)OCc1ccccc1` [I-53A]: the IC50 (usually the concentration that gives 50% inhibition) is greater than 10 µM.

On to `CNC(=O)[C@@H](NC(=O)[C@@H]1CN(Cc2cnco2)CC12CN(C(=O)[C@H]1CC1(C)C)C2)[C@@H](C)OCc1ccccc1` [I-78A, (S)—N-((2S,3R)-3-(benzyloxy)-1-(methylamino)-1-oxobutan-2-yl)-2-((S)-2,2-dimethylcyclopropane-1-carbonyl)-6-(oxazol-5-ylmethyl)-2,6-diazaspiro[3.4]octane-8-carboxamide], for which the IC50 was greater than 10 µM.

Consider `CC1(C)C[C@@H]1C(=O)N1CC2(CN(C(=O)c3cnn(Cc4ccccc4)c3)C[C@H]2C(=O)Nc2ccc(Cc3ccccc3)nc2)C1` [I-139, (S)-6-(1-benzyl-1H-pyrazole-4-carbonyl)-N-(6-benzylpyridin-3-yl)-2-((S)-2,2-dimethylcyclopropane-1-carbonyl)-2,6-diazaspiro[3.4]octane-8-carboxamide], for which the IC50 is greater than 10 µM.

Regarding `CNC(=O)[C@@H](NC(=O)[C@@H]1CN(C(=O)C2CCNC2)CC12CN(C(=O)[C@H]1CC1(C)C)C2)[C@@H](C)OCc1ccccc1` (stereo partly drawn) [I-70A, (8S)—N-((2S,3R)-3-(benzyloxy)-1-(methylamino)-1-oxobutan-2-yl)-2-((S)-2,2-dimethylcyclopropane-1-carbonyl)-6-(pyrrolidine-3-carbonyl)-2,6-diazaspiro[3.4]octane-8-carboxamide], the IC50 is greater than 10 µM.

With `C[C@@H](OCC1CCCCC1)[C@H](NC(=O)[C@H]1CN(C(=O)c2cn[nH]c2)CC12CN(C(=O)[C@H]1CC1(C)C)C2)C(=O)N1CCC(F)(F)CC1` [I-154B], the IC50 was greater than 10 µM.

In the case of `CNC(=O)[C@@H](NC(=O)[C@@H]1CN(C(=O)c2cnn(CC3CCN(C(C)=O)CC3)c2)CC12CN(C(=O)[C@H]1CC1(C)C)C2)[C@@H](C)OCc1ccccc1` [I-17A], the IC50 is greater than 10 µM.

With `CC1(C)C[C@@H]1C(=O)N1CC2(CN(C(=O)c3cnn(Cc4ccccc4)c3)C[C@H]2C(=O)Nc2cccc(-c3ccccc3)c2)C1` [I-63A], the IC50 lay in the range of 5 to 10 µM.

With `C[C@@H](OCc1ccccc1)[C@H](NC(=O)C1CN(C(=O)c2cnn(Cc3ccccc3)c2)CC12CN(C(=O)[C@H]1CC1(C)C)C2)C(=O)N1CCC(F)(F)CC1` (some centres unmarked) [I-85], the half-inhibitory concentration (IC50) was 0.5 to 5 µM.

As to `C[C@@H](OCc1ccccc1)[C@H](NC(=O)C1CN(C(=O)c2cnn(Cc3ccccc3)c2)CC12CN(C(=O)[C@H]1CC1(C)C)C2)C(=O)NCCO` (some centres unmarked) [I-30], the IC50 was greater than 10 µM.

With `CNC(=O)[C@@H](NC(=O)[C@H]1CN(Cc2ccccn2)CC12CN(C(=O)[C@H]1CC1(C)C)C2)[C@@H](C)OCc1ccccc1` [I-40B], the half-inhibitory concentration (IC50) was greater than 10 µM.

`COC(=O)[C@@H](CO)NC(=O)[C@@H]1CN(C(=O)c2cnn(Cc3ccccc3)c2)CC12CN(C(=O)[C@H]1CC1(C)C)C2` [I-187A]: the concentration for half-maximal inhibition (IC50) is greater than 10 µM.

Consider `CC1(C)C[C@@H]1C(=O)N1CC2(CN(C(=O)c3cnn(Cc4ccccc4)c3)C[C@H]2C(=O)N[C@H]2CCCN(C(=O)c3ccccc3)C2)C1` [I-83A], for which the IC50 was greater than 10 µM.

For the compound `CNC(=O)[C@@H](NC(=O)[C@H]1CN(C(=O)c2cnn(C)c2)CC12CN(C(=O)[C@H]1CC1(C)C)C2)[C@@H](C)OCc1ccccc1` [I-33B], the half-maximal inhibitory concentration (IC50) is greater than 10 µM.

In the case of `CC1(C)C[C@@H]1C(=O)N1CC2(CN(C(=O)c3cnn(Cc4ccccc4)c3)C[C@H]2C(=O)N[C@H]2CCN(c3ccccc3)C2)C1` [I-206], the 50% inhibitory concentration (IC50) is greater than 10 µM.

For `CNC(=O)[C@@H](NC(=O)[C@H]1CN(C(=O)c2cnn(Cc3ccccc3)c2)CC12CN(C(=O)[C@H]1CC1(C)C)C2)[C@@H](C)OCC1CCOCC1` [I-119B], the IC50 was greater than 10 µM.

As to `COC(=O)C1(NC(=O)[C@H]2CN(C(=O)c3cnn(Cc4ccccc4)c3)CC23CN(C(=O)[C@H]2CC2(C)C)C3)COC1` [I-142A], the IC50 was greater than 10 µM.

For the compound `CNC(=O)[C@@H](NC(=O)[C@H]1CN(C(=O)C2CCNC2)CC12CN(C(=O)[C@H]1CC1(C)C)C2)[C@@H](C)OCc1ccccc1` (some centres unmarked) [I-70B], the IC50 was greater than 10 µM.

Consider `CNC(=O)[C@@H](NC(=O)[C@@H]1CN(C(=O)c2cnn(Cc3ccccc3)c2)CC12CN(C(=O)[C@H]1CC1(C)C)C2)[C@@H](C)OCc1cccnc1` [I-247], for which the IC50 is greater than 10 µM.

As for `CC1(C)C[C@@H]1C(=O)N1CC2(CN(C(=O)c3cnn(Cc4ccccc4)c3)C[C@@H]2C(=O)Nc2ccc(Cc3ccccc3)nc2)C1` [I-168], the IC50 is greater than 10 µM.

For `C[C@@H]1C[C@H](C)CN(C(=O)[C@@H](NC(=O)C2CN(C(=O)c3cn[nH]c3)CC23CN(C(=O)[C@H]2CC2(C)C)C3)[C@@H](C)OCc2ccccc2)C1` (some centres unmarked) [I-124], the IC50 is greater than 10 µM.

For the compound `CNC(=O)[C@@H](NC(=O)[C@@H]1CN(C(=O)c2cnn(Cc3ccccc3)c2)CC12CN(C(=O)CC(C)(C)C)C2)[C@@H](C)OCc1ccccc1` [I-62A], the 50% inhibitory concentration (IC50) is greater than 10 µM.

For `C[C@H](NC(=O)[C@H]1CN(C(=O)c2cnn(Cc3ccccc3)c2)CC12CN(C(=O)[C@H]1CC1(C)C)C2)c1cccc(F)c1` [I-127B], the half-maximal inhibitory concentration (IC50) is greater than 10 µM.

Take `CNC(=O)[C@@H](NC(=O)[C@@H]1CN(S(=O)(=O)c2cnn(Cc3ccccc3)c2)CC12CN(C(=O)[C@H]1CC1(C)C)C2)[C@@H](C)OCc1ccccc1` [I-79A]: the IC50 was greater than 10 µM.

With `CNC(=O)[C@@H](NC(=O)[C@@H]1CN(C(=O)c2cnn(CC3CCOCC3)c2)CC12CN(C(=O)[C@H]1CC1(C)C)C2)[C@@H](C)OCC1CCCCC1` [I-121A], the IC50 is 5 to 10 µM.

As for `Cc1n[nH]c(C(=O)N2C[C@@H](C(=O)N[C@H](C(=O)N3CCCCC3)[C@@H](C)OCC3CCCCC3)C3(C2)CN(C(=O)[C@H]2CC2(C)C)C3)n1` [I-241], the 50% inhibitory concentration (IC50) was greater than 10 µM.

Consider `CNC(=O)[C@@H](NC(=O)[C@H]1CN(C(=O)c2cnn(Cc3ccccc3)c2)CC12CN(C(=O)[C@H]1CC1(C)C)C2)[C@H](C)OCC1CCCCC1` [I-165], for which the IC50 is greater than 10 µM.

As to `CNC(=O)[C@@H](NC(=O)[C@H]1CN(Cc2n[nH]c3ccccc23)CC12CN(C(=O)[C@H]1CC1(C)C)C2)[C@@H](C)OCc1ccccc1` [I-143], the IC50 is greater than 10 µM.

`CC1(C)C[C@@H]1C(=O)N1CC2(CN(C(=O)c3cnn(Cc4ccccc4)c3)C[C@@H]2C(=O)Nc2cccc(-c3ccccc3)c2)C1` [I-63B]: the IC50 was greater than 10 µM.

As for `CNC(=O)[C@@H](NC(=O)[C@@H]1CN(C(=O)c2cccnc2)CC12CN(C(=O)[C@H]1CC1(C)C)C2)[C@@H](C)OCc1ccccc1` [I-42A], the IC50 was greater than 10 µM.

As for `CC1(C)C[C@@H]1C(=O)N1CC2(CN(C(=O)c3cnn(Cc4ccccc4)c3)C[C@@H]2C(=O)N[C@H]2C[C@@H]2c2cccc(Cl)c2)C1` [I-140B], the IC50 is greater than 10 µM.

Turning to `CCCC(=O)N1CC2(C1)CN(C(=O)c1cnn(Cc3ccccc3)c1)C[C@H]2C(=O)N[C@H](C(=O)NC)[C@@H](C)OCc1ccccc1` [I-60A], the IC50 was greater than 10 µM.

For `CNC(=O)[C@@H](NC(=O)[C@H]1CN(Cc2ccncc2)CC12CN(C(=O)[C@H]1CC1(C)C)C2)[C@@H](C)OCc1ccccc1` [I-55B], the 50% inhibitory concentration (IC50) was greater than 10 µM.

Regarding `CNC(=O)[C@@H](NC(=O)[C@H]1CN(C(=O)c2cn[nH]c2)CC12CN(C(=O)CC1CC1)C2)[C@@H](C)OCc1ccccc1` [I-41B], the IC50 was greater than 10 µM.

For the compound `CNC(=O)[C@@H](NC(=O)[C@H]1CN(Cc2cnc[nH]2)CC12CN(C(=O)[C@H]1CC1(C)C)C2)[C@@H](C)OCc1ccccc1` [I-77B], the IC50 is greater than 10 µM.

Regarding `CNC(=O)[C@@H](NC(=O)[C@@H]1CN(C(=O)c2ccncc2)CC12CN(C(=O)[C@H]1CC1(C)C)C2)[C@@H](C)OCc1ccccc1` [I-46A], the IC50 is greater than 10 µM.

With `CNC(=O)[C@@H](NC(=O)[C@@H]1CN(Cc2ccccn2)CC12CN(C(=O)[C@H]1CC1(C)C)C2)[C@@H](C)OCc1ccccc1` [I-40A], the IC50 is greater than 10 µM.

`CNC(=O)[C@@H](NC(=O)[C@@H]1CN(C(=O)Nc2cnn(Cc3ccccc3)c2)CC12CN(C(=O)[C@H]1CC1(C)C)C2)[C@@H](C)OCc1ccccc1` [I-48A, (S)—N6-(1-benzyl-1H-pyrazol-4-yl)-N8-((2S,3R)-3-(benzyloxy)-1-(methylamino)-1-oxobutan-2-yl)-2-((S)-2,2-dimethylcyclopropane-1-carbonyl)-2,6-diazaspiro[3.4]octane-6,8-dicarboxamide]: the IC50 is greater than 10 µM.

With `CC1(C)C[C@@H]1C(=O)N1CC2(CN(C(=O)c3cnn(Cc4ccccc4)c3)CC2C(=O)NC2CNCCOC2)C1` (some centres unmarked) [I-245], the IC50 is greater than 10 µM.

Consider `CNC(=O)[C@@H](NC(=O)[C@H]1CN(C(=O)Nc2cnn(Cc3ccccc3)c2)CC12CN(C(=O)[C@H]1CC1(C)C)C2)[C@@H](C)OCc1ccccc1` [I-48B], for which the IC50 was greater than 10 µM.

In the case of `CNC(=O)[C@@H](NC(=O)[C@H]1CN(S(=O)(=O)c2cnn(Cc3ccccc3)c2)CC12CN(C(=O)[C@H]1CC1(C)C)C2)[C@@H](C)OCc1ccccc1` [I-79B], the IC50 is greater than 10 µM.

`CNC(=O)[C@@H](NC(=O)[C@H]1CN(C(=O)c2scnc2C(C)(C)C)CC12CN(C(=O)[C@H]1CC1(C)C)C2)[C@@H](C)OCC1CCCCC1` [I-231B]: the IC50 was greater than 10 µM.

As for `CNC(=O)[C@H](CS(=O)(=O)Cc1ccccc1)NC(=O)[C@@H]1CN(C(=O)c2cnn(Cc3ccccc3)c2)CC12CN(C(=O)[C@H]1CC1(C)C)C2` [I-226], the IC50 was greater than 10 µM.

For the compound `CNC(=O)[C@@H](NC(=O)[C@H]1CN(C(=O)c2cnn(Cc3ccccc3)c2)CC12CN(C(=O)CC1(COC)CC1)C2)[C@@H](C)OCc1ccccc1` [I-82B], the IC50 is greater than 10 µM.

`CC1(C)C[C@@H]1C(=O)N1CC2(CN(C(=O)c3cnn(Cc4ccccc4)c3)C[C@H]2C(=O)N2CCC[C@H](C(=O)NC3CCCCC3)C2)C1` [I-180]: the IC50 is greater than 10 µM.

For the compound `CC1(C)C[C@@H]1C(=O)N1CC2(CN(C(=O)c3cnn(Cc4ccccc4)c3)C[C@@H]2C(=O)NCCOCc2ccccc2)C1` [I-96B], the IC50 was greater than 10 µM.

For `CNC(=O)[C@@H](NC(=O)[C@H]1CN(C(=O)c2cnn(Cc3ccccc3)c2)CC12CN(C(=O)[C@H]1CC1(C)C)C2)C(C)(C)SCc1ccccc1` [I-171B], the IC50 is greater than 10 µM.

As for `C[C@@H](OCC1CCCCC1)[C@H](NC(=O)[C@@H]1CN(C(=O)c2ccn[nH]2)CC12CN(C(=O)[C@H]1CC1(C)C)C2)C(=O)N1CCCCC1` [I-216], the IC50 is greater than 10 µM.
